Here are results for one compound from US20240075050A1, “Methods and Compositions for Treating Leucine Rich Repeat Kinase 2 (LRRK2)-Associated Disorder or Condition” (University of Connecticut, priority 2022, published 2024).

For one assay, the system named is CD68. The assay can be described thus: LPS-induced neuroinflammation in mice, CD68 levels. In kind it is in vivo, mouse. The following applies: 21 days; for LPS-induced CD68 levels in SNpc: AICAr 2.4 μg/day/animal, immunostaining. As to the method:
FIGS. 9A-9F depict that AICAr rescues LPS-induced DA neurodegeneration and inflammation in mice, which acts through LRRK2. FIG. 9A depicts representative images of DAneuron staining. WT and LRRK-KO mice were injected with 1 ul LPS (5 ug/animal) or phosphate buffered saline (PBS) into the substantia nigra pars compacta (SNpc) and administrated with AICAr (2.4 μg/day/animal) or saline to same stereotaxic coordinates using osmotic pumps. After 21 days of injection, DA neurons were stained by anti-tyrosine hydroxylase (TH) antibody. Scale bars, […]. FIG. 9B depicts quantification of TH positive neurons in substantia nigra pars compacta (SNpc) using an unbiased stereological method with stereo investigator software from 7-8 animals per group. FIG. 9C depicts quantification of Niss1-positive neurons in SNpc using an unbiased stereological method with stereo investigator software from 7-8 animals per group. FIG. 9D depicts the CD68 levels in SNpc tissues near the needle sites analyzed by immunostaining. Scale bars, 100 μm. FIG. 9E depicts the CD68 levels in WT and LRRK-KO mice injected with 1 μl LPS (5 μg/animal) or PBS into striatum followed by administration of AICAr (2.4 μg/day/animal) or saline to same stereotaxic coordinates using osmotic pumps. After 21 days of injection, LRRK2 and CD68 expression in striatal tissues near the needle sites was analyzed by Western blot. FIG. 9F depicts quantification of images from (FIG. 9E) using ImageJ software, n=3 animals per group. Data information: Data are mean±SEM. ***p<0.001, ****p<0.0001 by one-way ANOVA followed by a Tukey's post hoc test. ns: not statistically significant.
Stereotaxic intracranial injection. […]
Immunohistochemistry. […] After antigen retrieval with 10 mM sodium citrate (pH 6.0) and 0.05% Tween-20 at 37° C. for 30 minutes, brain sections were washed in PBS for three times, permeabilized with 0.3% Triton X-100 in PBS, blocked with 10% goat serum in PBS, incubated with anti-tyrosine hydroxylase (TH) antibody overnight at 4° C., and then detected with Biotin-SP goat anti-rabbit IgG antibody at room temperature for 2 hours. […]

A further assay has as its system LRRK2. The assay can be described thus: LRRK2 levels in mouse striatal tissue after intracranial AICAr via osmotic pumps, Western blot. In kind it is in vivo. As to the method: Saline injections were performed as controls.
Stereotaxic intracranial injection. Three days before survival surgery, osmotic pumps (ALZET, 1004) were filled with saline, 1 mg/ml or 30 mg/ml AICAr in saline, assembled with brain infusion kits (ALZET, Brain Infusion Kit 2), and incubated in saline at 37° C. 3-month-old mice were anesthetized by isoflurane gas supplemented with 0.5 L/min oxygen. A ˜1.5 cm incision was made midline on the scalp. For mouse striatum injection, one hole was drilled at the following coordinates: anterioposterior=+0.5 mm from bregma; lateral=−2.0 mm from bregma; dorsoventral=−3.5 mm. For mouse substantia nigra pars compacta (SNpc) injection, one hole was drilled at the following coordinates: anterioposterior=−3.2 mm from bregma; lateral=−1.2 mm from bregma; dorsoventral=−4.2 mm. 1 ul LPS (5 ug) or PBS was injected at a rate of 0.2 ul/min using a Hamilton syringe with a 26-gauge blunt needle. After injection, the needle was in place for 5 minutes to minimize backflow. A subcutaneous pocket was made on the animal's back to hold the osmotic pump. The 28-gauge needle from infusion cannulae connected to the osmotic pump with a vinyl catheter tube was inserted into the same hole and then the cannulae was secured to the skull with Loctite 454 (ALZET). The wound was closed with monofilament suture. […]
(In general: In western blotting, separated proteins are transferred to a membrane and probed.)

The subject of another assay is LRRK2 mRNA. The assay can be described thus: LRRK2 mRNA levels by real-time PCR in SH-SY5Y cells. Format: cell-based, human. The following applies: 24 hours. The protocol:
Real-Time PCR (qPCR). SH-SY5Y WT or AUF1-KO cells were treated with or without 2 mM AICAr for 24 hours, and total RNA was extracted from 3×10^5 cells of each treatment using TRIzol™ Reagent (Invitrogen) as per the manufacturer's introductions. Real-Time PCR (qPCR) assay was performed using GoTaq® 2-Step RT-PCR System (Promega) as per the manufacturer's introductions. Briefly, total cDNA was reversely transcribed from RNA pools (1.5 μg RNA in a 10 μl reaction mixture) using random primers. The qPCR reaction was run in CFX96 qPCR detection system (Bio-Rad) with 3 μl cDNA (1:20 dilution) in a 10 μl reaction mixture (Table 3), and set at 95° C. for 2 minutes followed by 40 amplification cycles of 95° C. for 15 seconds, 60° C. for 1 min with a melting curve, 95° C. for 15 seconds, 60° C. for 1 min, a ramp from 60° C. to 95° C. at an 1% rate, and 95° C. for 15 seconds. Melt curves were monitored to assess qPCR amplicons, and critical threshold (Ct) values were collected with an enclosed software. Relative gene expression was analyzed by normalization against Ct values of f-ACTIN (housekeeping gene) and then determined by comparison with expression levels of control sample using the relative expression index (2-ΔΔCt) method.

Consider `NC(=O)c1ncn([C@@H]2O[C@H](CO)[C@@H](O)[C@H]2O)c1N` [AICAr, 5-aminoimidazole-4-carboxamide riboside], for which the entries for the “LPS-induced CD68 levels in SNpc” value in the assay on CD68 (LRRK2 KO mice) and with CD68 (WT mice) were “did not significantly rescue” and “significantly reduced”, respectively. Further, in the assay on CD68 (WT mice, AICAr 2.4 μg/day/animal into striatum, Western blot), the “CD68 levels stimulated by LPS in striatum” value was “significantly reduced”. Moreover, in the assay with LRRK2 (WT mice, LPS model, AICAr 2.4 μg/day/animal into striatum, 21 days, Western blot), the “LRRK2 levels in striatal tissues” value is “significant decrease”. The “LRRK2 levels in striatal tissue near the injection sites” value in the assay with LRRK2 (male and female mice, striatum, osmotic minipumps, 72 ug/animal/day, 1 day after injection) is “dramatically decreased”. In the assay on LRRK2 mRNA (SH-SY5Y AUF1-KO cells), the “LRRK2 mRNA level in AUF1-KO cells” value is on record as “minimal effect”. Besides, in the assay with LRRK2 mRNA (SH-SY5Y WT, 2 mM, real-time PCR), the “LRRK2 mRNA levels” value is “significantly decreased”.
